Experimental data published in US20240360178A1, “MACROCYCLIC IMMUNOMODULATORS” (Bristol-Myers Squibb Company, priority 2021, published 2024).
Positions of bridges follow the written chain, without caps; N, C: chain ends. Non-standard residues stand in square brackets, D forms with d. Residues, ends and D or L forms follow the SMILES beside them. ξ: configuration not given here. Phe(3-CF3) = N[C@@H](Cc1cccc(C(F)(F)F)c1)C(=O)O; Phe(4-COOH) = N[C@@H](Cc1ccc(C(=O)O)cc1)C(=O)O; Bip = N[C@@H](Cc1ccc(-c2ccccc2)cc1)C(=O)O; Phe(3-Br) = N[C@@H](Cc1cccc(Br)c1)C(=O)O; NMeF = CN[C@@H](Cc1ccccc1)C(=O)O; ξR = N=C(N)NCCCC(N)C(=O)O; NMeA = CN[C@@H](C)C(=O)O; dNMeA = CN[C@H](C)C(=O)O; Dab = NCC[C@H](N)C(=O)O; Sar = CNCC(=O)O

What follows are compounds tested against T1, human PD-1 (Jurkat-PD-1 cells) / PE-labeled human PD-L1-Ig (Homo sapiens, UniProt Q15116) (assay: Jurkat-PD-1 Cell Binding High-Content Screening Assay (CBA); Jurkat hPD1-PDL1 assay). Conditions: Jurkat cell line over-expressing human PD-1; PE-labeled PD-L1-Ig 20 nM final; compound incubated 2 hours at 37° C.; read-out: Jurkat HPD1-PDL1 IC50.
T1 construct: expressed in transfected cells; host or cells: Jurkat cell line over-expressing human PD-1
T1 sequence (Q15116 25-288): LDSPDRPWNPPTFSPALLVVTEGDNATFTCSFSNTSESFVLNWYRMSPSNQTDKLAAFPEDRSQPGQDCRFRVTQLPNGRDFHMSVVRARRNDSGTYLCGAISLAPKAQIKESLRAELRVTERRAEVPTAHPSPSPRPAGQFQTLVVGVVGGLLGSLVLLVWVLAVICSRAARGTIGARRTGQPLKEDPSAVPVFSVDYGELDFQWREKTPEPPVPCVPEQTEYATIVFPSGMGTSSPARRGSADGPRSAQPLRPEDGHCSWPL
Outline: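 Compound was added to Jurkat-PD-1 cells in DMEM plus 10% fetal calf serum and incubated 2 hours at 37° C. Binding of phycoerythrin-conjugated PD-L1-Ig (20 nM final) to the cells was imaged.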

Row | Compound | IC50 [nM]
1 | CC(C)C[C@@H]1NC(=O)[C@H](Cc2c[nH]c3ccccc23)NC(=O)[C@H](CC(=O)O)NC(=O)[C@H](Cc2cccc(Br)c2)NC(=O)[C@H](Cc2ccccc2)NC(=O)CSC[C@@H](C(=O)N[C@@H](C)C(N)=O)NC(=O)[C@H](CO)NC(=O)[C@H](C(C)C)NC(=O)[C@H](CC(C)C)NC(=O)[C@H](CC(N)=O)NC(=O)[C@H]2CCCN2C(=O)[C@H](C)N(C)C(=O)[C@H](C(C)C)NC(=O)[C@H](Cc2ccc(-c3ccccc3)cc2)NC1=O [Example 1065] ({CH2CO}-F[Phe(3-Br)]DWL[Bip]V[NMeA][dP]NLVSCA-NH2; thioether N-14) | 120
2 | CC(C)C[C@@H]1NC(=O)[C@H](Cc2c[nH]c3ccccc23)NC(=O)[C@H](CC(=O)O)NC(=O)[C@H](Cc2ccc(C(=O)O)cc2)NC(=O)[C@H](Cc2cnc[nH]2)NC(=O)CSC[C@@H](C(=O)N[C@@H](C)C(N)=O)NC(=O)[C@H](CO)NC(=O)[C@H](C(C)C)NC(=O)[C@H](CC(C)C)NC(=O)[C@H](CC(N)=O)NC(=O)[C@H]2CCCN2C(=O)[C@H](C)N(C)C(=O)[C@H](C(C)C)NC(=O)[C@H](Cc2ccc(-c3ccccc3)cc2)NC1=O [Example 1046] ({CH2CO}-H[Phe(4-COOH)]DWL[Bip]V[NMeA][dP]NLVSCA-NH2; thioether N-14) | 80
3 | CC(C)C[C@@H]1NC(=O)[C@H](Cc2c[nH]c3ccccc23)NC(=O)[C@H](CC(=O)O)NC(=O)[C@H](Cc2ccc(O)cc2)NC(=O)[C@H](Cc2ccccc2)NC(=O)CSC[C@@H](C(=O)NCC(N)=O)NC(=O)[C@H](CO)NC(=O)[C@H](C(C)C)NC(=O)[C@H](CC(C)C)NC(=O)[C@H](CC(N)=O)NC(=O)[C@@H](C)N(C)C(=O)[C@H](C)N(C)C(=O)[C@H](C(C)C)NC(=O)[C@H](Cc2ccc(-c3ccccc3)cc2)NC1=O [Example 1082] ({CH2CO}-FYDWL[Bip]V[NMeA][dNMeA]NLVSCG-NH2; thioether N-14) | 230
4 | CC(C)C[C@@H]1NC(=O)[C@H](Cc2cccc(C(F)(F)F)c2)NC(=O)[C@H](CC(=O)O)NC(=O)[C@H](Cc2ccc(O)cc2)NC(=O)[C@H](Cc2ccccc2)NC(=O)CSC[C@@H](C(=O)N[C@@H](C)C(N)=O)NC(=O)[C@H](CO)NC(=O)[C@H](C(C)C)NC(=O)[C@H](CC(C)C)NC(=O)[C@H](CC(N)=O)NC(=O)CN(C)C(=O)[C@H](C)N(C)C(=O)[C@H](C(C)C)NC(=O)[C@H](Cc2ccc(-c3ccccc3)cc2)NC1=O [Example 1081] ({CH2CO}-FYD[Phe(3-CF3)]L[Bip]V[NMeA][Sar]NLVSCA-NH2; thioether N-14) | 230
5 | CC(C)C[C@@H]1NC(=O)[C@H](CCCNC(=N)N)NC(=O)[C@H](Cc2ccccc2)N(C)C(=O)[C@H](C)N(C)C(=O)[C@H](CCCNC(=N)N)NC(=O)[C@H](Cc2ccc(-c3ccccc3)cc2)NC(=O)[C@H](C(C)C)NC(=O)[C@H](Cc2c[nH]c3ccccc23)NC(=O)[C@H](CC(=O)O)NC(=O)[C@H](Cc2ccc(O)cc2)NC(=O)[C@H](Cc2cnc[nH]2)NC(=O)CSC[C@@H](C(=O)N[C@@H](C)C(N)=O)NC(=O)[C@H]([C@@H](C)O)NC(=O)[C@H](C(C)C)NC1=O [Example 1324] ({CH2CO}-HYDWV[Bip]R[NMeA][NMeF]RLVTCA-NH2; thioether N-14) | 270
6 | CC(C)C[C@@H]1NC(=O)C(CCCNC(=N)N)NC(=O)[C@H](Cc2ccccc2)N(C)C(=O)[C@H](C)N(C)C(=O)[C@H](CCCNC(=N)N)NC(=O)[C@H](Cc2ccc(-c3ccccc3)cc2)NC(=O)[C@H](C(C)C)NC(=O)[C@H](Cc2c[nH]c3ccccc23)NC(=O)[C@H](CC(=O)O)NC(=O)[C@H](Cc2ccc(O)cc2)NC(=O)[C@H](Cc2ccccc2)NC(=O)CSC[C@@H](C(=O)NCC(N)=O)NC(=O)[C@H](CCCNC(=N)N)NC(=O)[C@H](C(C)C)NC1=O (stereo partly drawn) [Example 1220] ({CH2CO}-FYDWV[Bip]R[NMeA][NMeF][ξR]LVRCG-NH2; thioether N-14) | 720
7 | CC(C)C[C@@H]1NC(=O)[C@H](CCN)NC(=O)[C@H](Cc2ccccc2)N(C)C(=O)[C@H](C)N(C)C(=O)[C@H](CCCNC(=N)N)NC(=O)[C@H](Cc2ccc(-c3ccccc3)cc2)NC(=O)[C@H](C(C)C)NC(=O)[C@H](Cc2c[nH]c3ccccc23)NC(=O)[C@H](CC(=O)O)NC(=O)[C@H](Cc2ccc(O)cc2)NC(=O)[C@H](Cc2cnc[nH]2)NC(=O)CSC[C@@H](C(=O)NCC(N)=O)NC(=O)[C@H](CO)NC(=O)[C@H](C(C)C)NC1=O [Example 1314] ({CH2CO}-HYDWV[Bip]R[NMeA][NMeF][Dab]LVSCG-NH2; thioether N-14) | 90
8 | CC(C)C[C@@H]1NC(=O)[C@H](CCCCN)NC(=O)[C@H](Cc2ccccc2)N(C)C(=O)[C@H](C)N(C)C(=O)[C@H](CCCNC(=N)N)NC(=O)[C@H](Cc2ccc(-c3ccccc3)cc2)NC(=O)[C@H](C(C)C)NC(=O)[C@H](Cc2c[nH]c3ccccc23)NC(=O)[C@H](CC(=O)O)NC(=O)[C@H](Cc2ccc(O)cc2)NC(=O)[C@H](Cc2ccccc2)NC(=O)CSC[C@@H](C(=O)N[C@@H](CO)C(N)=O)NC(=O)[C@H]([C@@H](C)O)NC(=O)[C@H](C(C)C)NC1=O [Example 1359] ({CH2CO}-FYDWV[Bip]R[NMeA][NMeF]KLVTCS-NH2; thioether N-14) | 270
9 | CC(C)C[C@@H]1NC(=O)[C@H](CCCNC(=N)N)NC(=O)[C@H](Cc2ccccc2)N(C)C(=O)[C@H](C)N(C)C(=O)[C@H](CCC(=O)O)NC(=O)[C@H](Cc2ccc(-c3ccccc3)cc2)NC(=O)[C@H](C(C)C)NC(=O)[C@H](Cc2c[nH]c3ccccc23)NC(=O)[C@H](CC(=O)O)NC(=O)[C@H](Cc2ccc(O)cc2)NC(=O)[C@H](CC(N)=O)NC(=O)CSC[C@@H](C(=O)N[C@@H](C)C(N)=O)NC(=O)[C@H](CO)NC(=O)[C@H](C(C)C)NC1=O [Example 1382] ({CH2CO}-NYDWV[Bip]E[NMeA][NMeF]RLVSCA-NH2; thioether N-14) | 130
10 | CC(C)C[C@@H]1NC(=O)[C@H](Cc2c[nH]c3ccccc23)NC(=O)[C@H](CC(=O)O)NC(=O)[C@H](Cc2ccc(O)cc2)NC(=O)[C@H](Cc2ccccc2)NC(=O)CSC[C@@H](C(=O)NCC(N)=O)NC(=O)[C@H](CO)NC(=O)[C@H](C(C)C)NC(=O)[C@H](CC(C)C)NC(=O)[C@H](CCN)NC(=O)CN(C)C(=O)[C@H](C)N(C)C(=O)[C@H](C(C)C)NC(=O)[C@H](Cc2ccc(-c3ccccc3)cc2)NC1=O [Example 1069] ({CH2CO}-FYDWL[Bip]V[NMeA][Sar][Dab]LVSCG-NH2; thioether N-14) | 160
11 | CC(C)C[C@@H]1NC(=O)CSC[C@@H](C(=O)NCC(N)=O)NC(=O)[C@H](CO)NC(=O)[C@H](C(C)C)NC(=O)[C@H](CC(C)C)NC(=O)[C@H](CCCNC(=N)N)NC(=O)[C@H](Cc2ccccc2)N(C)C(=O)[C@H](C)N(C)C(=O)[C@H](CCCNC(=N)N)NC(=O)[C@H](Cc2ccc(-c3ccccc3)cc2)NC(=O)[C@H](C(C)C)NC(=O)[C@H](Cc2c[nH]c3ccccc23)NC(=O)[C@H](CC(=O)O)NC(=O)[C@H](Cc2ccc(O)cc2)NC1=O [Example 1077] ({CH2CO}-LYDWV[Bip]R[NMeA][NMeF]RLVSCG-NH2; thioether N-14) | 210
12 | CC(C)C[C@@H]1NC(=O)[C@H](Cc2c[nH]c3ccccc23)NC(=O)[C@H](CC(=O)O)NC(=O)[C@H](Cc2ccc(O)cc2)NC(=O)[C@H](Cc2ccccc2)NC(=O)CSC[C@@H](C(=O)N[C@@H](C)C(N)=O)NC(=O)[C@H]([C@@H](C)O)NC(=O)[C@H](CCCCN)NC(=O)[C@H](CC(C)C)NC(=O)[C@H](CC(N)=O)NC(=O)[C@H]2CCCN2C(=O)[C@H](C)N(C)C(=O)[C@H](C(C)C)NC(=O)[C@H](Cc2ccc(-c3ccccc3)cc2)NC1=O [Example 1089] ({CH2CO}-FYDWL[Bip]V[NMeA][dP]NLKTCA-NH2; thioether N-14) | 250
